Reference: patent US6545006B1, “Process for obtaining L-dihydroorotic acid and use thereof” (Aventis Pharma Deutschland GmbH, priority 1997, dated 2003)

Assays:
DHO-DH = biological target: T1, DHO-DH (Mus musculus, UniProt O35435); assay: Intracellular DHO-concentrations in A20.2.J cells incubated with A77 1726; assay type: cell-based; conditions: for DHO-Concentration (μg/ml ± SD) Experiment 1 (E10 B) / DHO-Concentration (μg/ml ± SD) Experiment 2 (E14): 5 μM A77 1726, 24 hours, n=3
T1 construct: endogenous in cells; host or cells: A20.2.J cells
Method: Cell Culture: A20.2.J cells were cultured in serum free medium (37° C., 5% CO2) in an expansion culture at logarithmic cell growth. […] The percentage of dead cells were <8% (3).
Prepared cells were resuspended in a defined medium volume and cell density. Depending on expected DHO content, between 1-50 million cells were removed, pelleted (5 min, 350×g) and supernatant discarded. Cell were lysed, by adding 500 μl 1.2 M HCIO4. The lysates were transferred into 2 ml Eppendorf safe-lock-caps, and the protein precipitated by 2 min high speed centrifugation. The acidified lysates were completely removed, transferred into glass vials and, after addition of 500 μl chloroform, thoroughly mixed by 2 min vortexing. Cellular lipids were extracted following 10 min cold centrifugation (1502×g; 10° C.). The purified supernatants were collected in 2 ml Eppendorf caps for storage at −20° C. until high pressure liquid chromatography (HPLC) determination.
The chromatographic separation was performed as described in example 1.The range of the conductive detector was set to 10 μS. The analysis was performed at room temperature. The mobile phase was composed of 100 mM NaOH (A) and water (B). With that system the following gradient was produced:
(* all values extrapolated to 10×10^6 cells) (n=2).
The data are given as μg/ml DHO±SD extrapolated to ten million cells (0-4 h=n=2, 7 h=n=4).

[1] = A77 1726 concentrations in serum from rats treated with leflunomide; assay type: in vivo, rat; conditions: for A77 1726 concentrations in serum, Mean: leflunomide 10 mg/kg p.o. twice daily; for A77 1726 serum concentration: 3 hours after oral drug administration
Method: Animals: Male Wistar-Lewis rats (Mollegaard Breading Center Ltd. Ejby, DK) with a body weight of 160-200 g.
Adjuvant Arthritis: The disease was induced by injecting 0.1 ml Freund's adjuvant (6 mg Mycobacterium smegmatis suspended in 1 ml heavy, white paraffin oil (Merck, Darmstadt) into the root of Wistar-Lewis rat's tails. Pathological symptoms generally appear between 10 and 14 days after disease induction.
Drug Treatment: Drugs were suspended in 1% carboxymethylcellulose (COMC). […] (see table 12). At time point 0 h, 3 animals from both diseased and non-diseased groups were sacrificed to determine base-line levels. An additional 3 healthy and 3 diseased animals were treated with placebo (COMC alone) for 5 days.
Sampling: Three animals per group were sacrificed at each sampling time point. Serum and splenocytes taken at 3 h, 7 h, 27 h, 51 h, 75 h, and 99 h (see table 12). With the exception of the 7 h value, samples were taken three hours after the last drug application. The 7 h value was taken one hour after the second dosing. Samples from the placebo treated animals were taken at the 0 h (n=3) and 99 h (n=3) time points
Blood collected by heart puncture was stored for 30 min at 4° C. and then centrifuged for 10 min at 3000 rpm. Serum was separated and stored in Eppendorf-caps at −20° C. (3). Before HPLC analysis, the frozen serum was thawed and, in order to remove the proteins, 200 μl serum were added to a Microcon filter (model 10,code 42407, Amicon) and centrifuged for 30 min at 13 000 rpm.
The tubes were then mixed in a Vortex mixer and centrifuged at 2500 rpm (room temperature) for 10 minutes. For HPLC analysis, the supernatant (400 μl) was transferred to a vial and water (400 μl) added and mixed. The HPLC conditions were as follows: The hardware consisted of a TSP P2000 pump, a TSP AS1000 auto-sampler, a TSP SP4270 integrator, and a TSP UV100 UV-detector. Detection was at 292 nm wavelength. The mobile phase consisted of 650 ml methanol (CHROMASOLV), 2,42 g tetrabutylammoniumbromide, and 350 ml 0,05 M Ammoniumacetate. The flow rate was 0.5 ml/min A CHROMPACK Spherisorb ODS-2 10 cm column with a 1 cm reversed phase (R2) guard column was used. 100 μl was injected into the column and the running time was 7 min.

T1 sequence (O35435 whole entry): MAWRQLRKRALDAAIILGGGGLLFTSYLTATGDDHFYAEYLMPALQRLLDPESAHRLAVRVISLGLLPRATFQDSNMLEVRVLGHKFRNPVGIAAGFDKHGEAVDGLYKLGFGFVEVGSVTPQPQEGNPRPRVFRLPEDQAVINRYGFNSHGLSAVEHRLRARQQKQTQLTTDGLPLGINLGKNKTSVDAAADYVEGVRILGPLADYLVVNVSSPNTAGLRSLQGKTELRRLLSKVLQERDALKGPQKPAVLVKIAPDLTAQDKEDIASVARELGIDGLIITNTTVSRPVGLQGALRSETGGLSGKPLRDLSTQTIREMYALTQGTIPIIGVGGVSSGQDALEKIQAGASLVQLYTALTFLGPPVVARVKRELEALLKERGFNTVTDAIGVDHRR

CC(O)=C(C#N)C(=O)Nc1ccc(C(F)(F)F)cc1 [A77 1726, N-(4-trifluoromethyl)-2-cyano-3-hydroxy-crotonamide]
DHO-Concentration (μg/ml ± SD) Experiment 1 (E10 B) (DHO-DH; 1 ×10^6 cells extracted): 14.08 ± 2.40 µg/mL | DHO-Concentration (μg/ml ± SD) Experiment 2 (E14) (DHO-DH; 1 ×10^6 cells extracted): 11.75 ± 0.23 µg/mL | Concentration DHO (μg/ml) mean ± SD (DHO-DH; 1 × 10^6 cells/ml, 1 h, 5 μM A77 1726, extrapolated to 10×10^6 cells, n=2): 6.25 ± 0.42 µg/mL | Concentration DHO (μg/ml) mean ± SD (DHO-DH; 1 × 10^6 cells/ml, 4 h, 5 μM A77 1726, extrapolated to 10×10^6 cells, n=2): 33.06 ± 2.26 µg/mL | Concentration DHO (μg/ml) mean ± SD (DHO-DH; 1 × 10^6 cells/ml, 7 h, 5 μM A77 1726, extrapolated to 10×10^6 cells, n=2): 60.07 ± 0.01 µg/mL | incubation time after which detectable amounts of DHO could be determined (DHO-DH; 1×10^6 cells/ml, independent of the drug concentration): 1 h | incubation time with the greatest amount of DHO determined (DHO-DH; 1×10^6 cells/ml, saturation afterwards): 6 h | DHO-Concentration (μg/ml ± SD) Experiment 1 (E10 B) (DHO-DH; 2 ×10^6 cells extracted): 19.51 ± 6.47 µg/mL | DHO-Concentration (μg/ml ± SD) Experiment 2 (E14) (DHO-DH; 2 ×10^6 cells extracted): 28.27 ± 0.79 µg/mL | Concentration DHO (μg/ml) mean ± SD (DHO-DH; 2 × 10^6 cells/ml, 1 h, 5 μM A77 1726, extrapolated to 10×10^6 cells, n=2): 5.47 ± 0.10 µg/mL | Concentration DHO (μg/ml) mean ± SD (DHO-DH; 2 × 10^6 cells/ml, 4 h, 5 μM A77 1726, extrapolated to 10×10^6 cells, n=2): 26.36 ± 0.42 µg/mL | Concentration DHO (μg/ml) mean ± SD (DHO-DH; 2 × 10^6 cells/ml, 7 h, 5 μM A77 1726, extrapolated to 10×10^6 cells, n=2): 42.31 ± 1.07 µg/mL | Concentration DHO (μg/ml) mean ± SD (DHO-DH; 3 × 10^6 cells/ml, 1 h, 5 μM A77 1726, extrapolated to 10×10^6 cells, n=2): 5.63 ± 0.19 µg/mL | Concentration DHO (μg/ml) mean ± SD (DHO-DH; 3 × 10^6 cells/ml, 4 h, 5 μM A77 1726, extrapolated to 10×10^6 cells, n=2): 19.39 ± 1.87 µg/mL | Concentration DHO (μg/ml) mean ± SD (DHO-DH; 3 × 10^6 cells/ml, 7 h, 5 μM A77 1726, extrapolated to 10×10^6 cells, n=2): 28.79 ± 0.34 µg/mL | DHO-Concentration (μg/ml ± SD) Experiment 1 (E10 B) (DHO-DH; 4 ×10^6 cells extracted): 53.58 ± 3.50 µg/mL | DHO-Concentration (μg/ml ± SD) Experiment 2 (E14) (DHO-DH; 4 ×10^6 cells extracted): 57.20 ± 2.76 µg/mL | DHO-Concentration (μg/ml ± SD) Experiment 1 (E10 B) (DHO-DH; 6 ×10^6 cells extracted): 73.01 ± 1.49 µg/mL | DHO-Concentration (μg/ml ± SD) Experiment 2 (E14) (DHO-DH; 6 ×10^6 cells extracted): 85.38 ± 2.33 µg/mL | DHO-Concentration (μg/ml ± SD) Experiment 1 (E10 B) (DHO-DH; 8 ×10^6 cells extracted): 99.89 ± 5.96 µg/mL | DHO-Concentration (μg/ml ± SD) Experiment 2 (E14) (DHO-DH; 8 ×10^6 cells extracted): 107.02 ± 3.47 µg/mL | DHO-Concentration (μg/ml ± SD) Experiment 1 (E10 B) (DHO-DH; 10 ×10^6 cells extracted): 113.37 ± 4.24 µg/mL | DHO-Concentration (μg/ml ± SD) Experiment 2 (E14) (DHO-DH; 10 ×10^6 cells extracted): 128.73 ± 1.95 µg/mL | Concentration DHO (μg/ml) mean ± SD (DHO-DH; A77 1726 5 μM, 0 h, one million cells/ml, extrapolated to ten million cells): 2.73 ± 0.10 µg/mL | Concentration DHO (μg/ml) mean ± SD (DHO-DH; A77 1726 5 μM, 1 h, one million cells/ml, extrapolated to ten million cells): 9.20 ± 0.09 µg/mL | Concentration DHO (μg/ml) mean ± SD (DHO-DH; A77 1726 5 μM, 2 h, one million cells/ml, extrapolated to ten million cells): 24.03 ± 1.15 µg/mL | Concentration DHO (μg/ml) mean ± SD (DHO-DH; A77 1726 5 μM, 4 h, one million cells/ml, extrapolated to ten million cells): 59.48 ± 0.72 µg/mL | Concentration DHO (μg/ml) mean ± SD (DHO-DH; A77 1726 5 μM, 7 h, one million cells/ml, extrapolated to ten million cells): 87.54 ± 1.58 µg/mL | Concentration DHO (μg/ml) mean ± SD (DHO-DH; A77 1726 10 μM, 0 h, one million cells/ml, extrapolated to ten million cells): 2.73 ± 0.10 µg/mL | Concentration DHO (μg/ml) mean ± SD (DHO-DH; A77 1726 10 μM, 1 h, one million cells/ml, extrapolated to ten million cells): 8.5 ± 0.39 µg/mL | Concentration DHO (μg/ml) mean ± SD (DHO-DH; A77 1726 10 μM, 2 h, one million cells/ml, extrapolated to ten million cells): 20.74 ± 1.43 µg/mL | Concentration DHO (μg/ml) mean ± SD (DHO-DH; A77 1726 10 μM, 4 h, one million cells/ml, extrapolated to ten million cells): 58.65 ± 2.06 µg/mL | Concentration DHO (μg/ml) mean ± SD (DHO-DH; A77 1726 10 μM, 7 h, one million cells/ml, extrapolated to ten million cells): 82.65 ± 4.50 µg/mL | Concentration DHO (μg/ml) mean ± SD (DHO-DH; A77 1726 25 μM, 0 h, one million cells/ml, extrapolated to ten million cells): 2.73 ± 0.08 µg/mL | Concentration DHO (μg/ml) mean ± SD (DHO-DH; A77 1726 25 μM, 1 h, one million cells/ml, extrapolated to ten million cells): 15.05 ± 0.26 µg/mL | Concentration DHO (μg/ml) mean ± SD (DHO-DH; A77 1726 25 μM, 2 h, one million cells/ml, extrapolated to ten million cells): 26.06 ± 0.20 µg/mL | Concentration DHO (μg/ml) mean ± SD (DHO-DH; A77 1726 25 μM, 4 h, one million cells/ml, extrapolated to ten million cells): 50.21 ± 1.54 µg/mL | Concentration DHO (μg/ml) mean ± SD (DHO-DH; A77 1726 25 μM, 7 h, one million cells/ml, extrapolated to ten million cells): 114.89 ± 3.61 µg/mL | accumulation of L-DHO in A20.2.J tumor cells (DHO-DH; incubation with A77 1726): rapid accumulation of L-DHO | A77 1726 concentrations in serum, Mean ([1]; Adjuvant Diseased Rats, 3 h): 26.33 µg/mL | A77 1726 concentrations in serum, Mean ([1]; Adjuvant Diseased Rats, 7 h): 42.3 µg/mL | A77 1726 concentrations in serum, Mean ([1]; Adjuvant Diseased Rats, 27 h): 19.7 µg/mL | A77 1726 concentrations in serum, Mean ([1]; Adjuvant Diseased Rats, 51 h): 9.2 µg/mL | A77 1726 concentrations in serum, Mean ([1]; Adjuvant Diseased Rats, 75 h): 9.9 µg/mL | A77 1726 concentrations in serum, Mean ([1]; Adjuvant Diseased Rats, 99 h): 12.2 µg/mL | A77 1726 concentrations in serum, Mean ([1]; Non-Diseased Rats, 3 h): 30.7 µg/mL | A77 1726 concentrations in serum, Mean ([1]; Non-Diseased Rats, 7 h): 47.9 µg/mL | A77 1726 concentrations in serum, Mean ([1]; Non-Diseased Rats, 27 h): 9.6 µg/mL | A77 1726 concentrations in serum, Mean ([1]; Non-Diseased Rats, 51 h): 7400 µg/mL | A77 1726 concentrations in serum, Mean ([1]; Non-Diseased Rats, 99 h): 12.7 µg/mL | A77 1726 serum concentration ([1]; adjuvant diseased rats): about 26 μg/ml | time to reach the 7 to 12 μg/ml A77 1726 serum concentrations ([1]; diseased animals): 51 h | time to reach the 7 to 12 μg/ml A77 1726 serum concentrations ([1]; non-diseased rats): 27 h | A77 1726 serum concentration ([1]; non-diseased rats): ~31 µg/mL | time of peak A77 1726 serum concentration ([1]; one hour after the second dosing): 7 h
